Measurements as given in DBAASP.
In brackets after ≈: the same amount, converted by molar mass. Several values for one entry are separate records, joined by “and”; a condition that tells them apart may be missing. Equal values may be shown once. One block for each compound: values may come before it.

What was measured:
Test in all cases: ≥ marks a high value that may be exact or a test limit, other limits are often not marked, values filed in µg/mL are converted to µM
[1] = test system: Bacillus anthracis Sterne 34F2
[2] = test system: Bacillus subtilis ATCC 9372
[3] = test system: Burkholderia thailandensis
Bacillus subtilis PS832 = test system: Bacillus subtilis PS832
Escherichia coli DL7 = test system: Escherichia coli DL7
[4] = test system: Klebsiella aerogenes ATCC 13048
[5] = test system: Staphylococcus epidermidis ATCC 12228
[6] = test system: Cronobacter muytjensii ATCC 51329
[7] = test system: Cronobacter sakazakii ATCC BAA-894
[8] = test system: Cronobacter sakazakii DPC 6440
[9] = test system: Cronobacter sakazakii DSM 4485
[10] = test system: Escherichia coli NCIMB 11843
[11] = test system: Klebsiella pneumoniae NCIMB 13218
[12] = test system: Pseudomonas fluorescens NCIMB 9046
[13] = test system: Salmonella enterica subsp. enterica serovar Typhimurium LT2
[14] = test system: Staphylococcus aureus NCTC 8325-4
[15] = test system: Staphylococcus aureus Newman
[16] = test system: Staphylococcus aureus RF122
[17] = test system: Staphylococcus aureus RN4220
[18] = test system: Staphylococcus aureus SA113
[19] = test system: Escherichia coli ATCC 25922
[20] = test system: Pseudomonas aeruginosa ATCC 10419
[21] = test system: Pseudomonas aeruginosa ATCC 21625
[22] = test system: Pseudomonas aeruginosa ATCC 21630
[23] = test system: Pseudomonas aeruginosa ATCC 27853
[24] = test system: Pseudomonas aeruginosa LCCE
[25] = test system: Pseudomonas aeruginosa LCCI
[26] = test system: Pseudomonas aeruginosa LCGE
[27] = test system: Pseudomonas aeruginosa LC
[28] = test system: Salmonella enterica subsp. enterica serovar Typhimurium C77-31
[29] = test system: Staphylococcus aureus ATCC 29213
[30] = test system: Acinetobacter baumannii ATCC 19606
Acinetobacter baumannii = test system: Acinetobacter baumannii
[31] = test system: Bacillus subtilis ATCC 23857
[32] = test system: Enterococcus faecalis ATCC 29212
Escherichia coli 780 = test system: Escherichia coli 780
Escherichia coli 850 = test system: Escherichia coli 850
[33] = test system: Klebsiella pneumoniae ATCC 700603
[34] = test system: Pseudomonas aeruginosa 2760
[35] = test system: Staphylococcus aureus 725
[36] = test system: Staphylococcus aureus 936
[37] = test system: Staphylococcus aureus ATCC 25923
[38] = test system: Candida albicans ATCC 10231
Candida glabrata 090902 = test system: Candida glabrata 090902
[39] = test system: Enterobacter cloacae CGMCC 1.57
[40] = test system: Enterococcus faecalis 981
[41] = test system: Enterococcus faecium 091299
[42] = test system: Klebsiella pneumoniae 08040724
[43] = test system: Nocardia asteroides 201118
[44] = test system: Psychrobacter faecalis X29

SMILES: CSCC[C@H](NC(=O)[C@H](CO)NC(=O)[C@H](Cc1ccc(O)cc1)NC(=O)[C@H](CO)NC(C)=O)C(=O)N[C@@H](CCC(=O)O)C(=O)N[C@@H](Cc1cnc[nH]1)C(=O)N[C@@H](Cc1ccccc1)C(=O)N[C@@H](CCCN=C(N)N)C(=O)N[C@@H](Cc1c[nH]c2ccccc12)C(=O)NCC(=O)N[C@@H](CCCCN)C(=O)N1CCC[C@H]1C(=O)N[C@H](C(N)=O)C(C)C [SYSMEHFRWGKPV]
MIC [1]: ≥ 100 µM
MIC [2]: ≥ 100 µM
MIC [3]: ≥ 50 µM

SMILES: CC(C)C[C@H](NC(=O)CNC(=O)[C@H](CCC(N)=O)NC(=O)[C@H](Cc1cnc[nH]1)NC(=O)[C@H](CCCCN)NC(=O)[C@H](C)N)C(=O)N1CCC[C@H]1C(=O)N[C@@H](CCC(N)=O)C(=O)N[C@@H](CCC(=O)O)C(=O)O [AKHQGLPQE]
MIC [6]: ≥ 1250 µM
MIC [7]: ≥ 1250 µM
MIC [8]: ≥ 1250 µM
MIC [9]: ≥ 1250 µM
MIC [10]: ≥ 2500 µM
MIC [11]: ≥ 2500 µM
MIC [12]: ≥ 2500 µM
MIC [13]: ≥ 2500 µM
MIC [14]: ≥ 1250 µM
MIC [15]: ≥ 2500 µM
MIC [16]: ≥ 2500 µM
MIC [17]: ≥ 2500 µM
MIC [18]: ≥ 2500 µM

SMILES: CC[C@H](C)[C@H](NC(=O)[C@H](CCCCN)NC(=O)[C@H](CCCCN)NC(=O)[C@H](C)NC(=O)[C@H](CC(C)C)NC(=O)[C@H](C)NC(=O)[C@H](C)NC(=O)[C@H](CC(C)C)NC(=O)[C@@H]1CCCN1C(=O)[C@H](CCCCN)NC(=O)[C@H](CC(C)C)NC(=O)[C@H](CC(N)=O)NC(=O)[C@@H](NC(=O)[C@H](CCCCN)NC(=O)CNC(=O)[C@H](CC(C)C)NC(=O)[C@H](CC(C)C)NC(=O)[C@H](Cc1ccc(O)cc1)NC(=O)CNC(=O)[C@H](C)N)[C@@H](C)CC)C(=O)N[C@@H](CC(C)C)C(N)=O [AGYLLGKINLKPLAALAKKIL]
MIC [30]: 3.62 µM (≈ 8 µg/mL)
MIC (Acinetobacter baumannii): 3.62 µM (≈ 8 µg/mL)
MIC [31]: 3.62 µM (≈ 8 µg/mL)
MIC [32]: > 58 µM
MIC (Escherichia coli 780): 14.5 µM (≈ 32 µg/mL)
MIC (Escherichia coli 850): 7.24 µM (≈ 16 µg/mL)
MIC [19]: 7.24 µM (≈ 16 µg/mL)
MIC [33]: 29 µM (≈ 64 µg/mL)
MIC [34]: 29 µM (≈ 64 µg/mL)
MIC [23]: 58 µM (≈ 128 µg/mL)
MIC [35]: 29 µM (≈ 64 µg/mL)
MIC [36]: ≥ 58 µM
MIC [37]: 58 µM (≈ 128 µg/mL)

Second part, the compound after the results:

MIC (Bacillus subtilis PS832): 4 µM (≈ 9.01 µg/mL)
MIC (Escherichia coli DL7): 16 µM and 8 µM
MIC [4]: ≥ 32 µM
MIC [5]: 16 µM (≈ 36.1 µg/mL)
SMILES: CC(C)C[C@H](NC(=O)CNC(=O)[C@H](C)NC(=O)[C@H](CCCN=C(N)N)NC(=O)[C@H](Cc1cnc[nH]1)NC(=O)CNC(=O)CN)C(=O)N[C@@H](CCC(N)=O)C(=O)N[C@@H](Cc1ccccc1)C(=O)N1CCC[C@H]1C(=O)N[C@H](C(=O)NCC(=O)N[C@@H](CCCN=C(N)N)C(=O)N[C@H](C(=O)N[C@@H](Cc1cnc[nH]1)C(=O)N[C@@H](CCCN=C(N)N)C(=O)N[C@@H](CC(C)C)C(=O)N[C@@H](CC(C)C)C(=O)N[C@@H](CCCN=C(N)N)C(=O)N[C@@H](CCCCN)C(N)=O)C(C)C)C(C)C [GGHRAGLQFPVGRVHRLLRK]

MIC [19]: 64 µM (≈ 143 µg/mL)
MIC [20]: ≥ 256 µM
MIC [21]: ≥ 256 µM
MIC [22]: ≥ 256 µM
MIC [23]: 256 µM (≈ 571 µg/mL)
MIC [24]: ≥ 256 µM
MIC [25]: ≥ 256 µM
MIC [26]: ≥ 256 µM
MIC [27]: ≥ 64 µM
MIC [28]: ≥ 128 µM
MIC [29]: 128 µM (≈ 285 µg/mL)
MIC [5]: 32 µM (≈ 71.3 µg/mL)
SMILES: CC[C@H](C)[C@H](NC(=O)[C@H](CCCCN)NC(=O)[C@H](CCCCN)NC(=O)[C@H](CC(C)C)NC(=O)[C@H](CCCN=C(N)N)NC(=O)[C@H](CCCCN)NC(=O)[C@H](CCCN=C(N)N)NC(=O)[C@H](Cc1ccccc1)NC(=O)[C@H](CCCCN)NC(=O)[C@H](CCCCN)NC(=O)[C@H](CCCN=C(N)N)NC(=O)[C@H](CC(C)C)NC(=O)[C@H](CCCN=C(N)N)NC(=O)[C@H](CCCN=C(N)N)NC(=O)[C@H](Cc1ccccc1)NC(=O)[C@@H](N)CCCN=C(N)N)C(N)=O [RFRRLRKKFRKRLKKI]

MIC [38]: 50 µM (≈ 126 µg/mL)
MIC (Candida glabrata 090902): 3.1 µM (≈ 7.82 µg/mL)
MIC [39]: ≥ 100 µM
MIC [40]: 3.1 µM (≈ 7.82 µg/mL)
MIC [41]: ≥ 100 µM
MIC [19]: 100 µM (≈ 252 µg/mL)
MIC [42]: ≥ 100 µM
MIC [43]: 3.1 µM (≈ 7.82 µg/mL)
MIC [44]: 25 µM (≈ 63 µg/mL)
MIC [37]: 3.1 µM (≈ 7.82 µg/mL)
SMILES: CC[C@H](C)[C@H](NC(=O)CNC(=O)[C@@H](NC(=O)[C@H](C)NC(=O)[C@H](C)NC(=O)[C@H](CCCCN)NC(=O)[C@@H](NC(=O)[C@H](CC(C)C)NC(=O)CNC(=O)[C@@H]1CCCN1C(=O)[C@H](CC(C)C)NC(=O)[C@@H](N)Cc1ccccc1)[C@@H](C)CC)C(C)C)C(=O)NCC(=O)N[C@@H](CO)C(=O)N[C@H](C(=O)N[C@H](C(=O)N[C@@H](Cc1ccccc1)C(=O)N[C@H]1CSSC[C@@H](C(=O)O)NC(=O)[C@H](CCCCN)NC(=O)[C@H](CCCN=C(N)N)NC(=O)[C@H](CO)NC(=O)[C@H]([C@@H](C)CC)NC(=O)[C@H](CCCCN)NC1=O)[C@@H](C)CC)[C@@H](C)O [FLPGLIKAAVGIGSTIFCKISRKC]
